For 34 compounds, IC50 results are on record in US11780839B2, “Compounds for treating Huntington's disease” (PTC THERAPEUTICS, INC., priority 2018, dated 2023).

This experiment has as its system Endogenous Huntingtin Protein. In words: Endogenous Huntingtin Protein Assay (ELISA-based Meso Scale Discovery electrochemiluminescence). The format is cell-based. The settings on record: MSD electrochemiluminescence, Table 1. In a few lines: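 Huntingtin was captured overnight at 4 °C on plates coated with 1 μg/mL MW1 (polyQ-expanded) or MAB2166 antibody and BSA-blocked. Detection used a rabbit monoclonal and then a SULFO-TAG goat anti-rabbit antibody (0.25 μg/mL, 1 h each, room temperature). Signal was read by electrochemiluminescence.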
One may read the IC50 as the concentration that inhibits the measured activity by half. Read a high IC50 as lower potency. Take `CNC1CCN(c2ncc(-c3ccc(-c4cnc(C)o4)cc3O)nn2)C1` (stereo not drawn) [Cpd 350, 2-{3-[3-(methylamino)pyrrolidin-l-yl]-1,2,4-triazin-6-yl}-5-(2-methyl-1,3-oxazol-5-yl)phenol]: the IC50 was ≤ 100 nM. The value for `CN1CCC2(CC1)CN(c1ncc(-c3ccc(-c4cn5ccnc5cn4)cc3O)nn1)C2` [Cpd 257, 5-(imidazo[1,2-a]pyrazin-6-yl)-2-[3-(7-methyl-2,7-diazaspiro[3.5]nonan-2-yl)-1,2,4-triazin-6-yl]phenol] was 1000 to 3000 nM. The same measure for `CN(c1ncc(-c2ccc(-c3cc4ncn(C)c4c(F)c3F)cc2O)nn1)C1CC(C)(C)NC(C)(C)C1` [Cpd 302, 5-(6,7-difluoro-1-methyl-1H-benzimidazol-5-yl)-2-{3-[methyl(2,2,6,6-tetramethylpiperidin-4-yl)amino]-1,2,4-triazin-6-yl}phenol]: > 500 nM. The value for `COc1cc(-c2ccc(-c3cnc(NC4CC(C)(C)NC(C)(C)C4)nn3)c(O)c2)ncn1` [Cpd 254, 5-(6-methoxypyrimidin-4-yl)-2-{3-[(2,2,6,6-tetramethylpiperidin-4-yl)amino]-1,2,4-triazin-6-yl}phenol] was ≤ 100 nM; that for `CN(c1cnc(-c2ccc(-n3nccn3)cc2O)nn1)C1CC(C)(C)NC(C)(C)C1` [Cpd 255, 2-{6-[methyl(2,2,6,6-tetramethylpiperidin-4-yl)amino]-1,2,4-triazin-3-yl}-5-(2H-1,2,3-triazol-2-yl)phenol] was ≤ 100 nM; that for `CC(C)(C)N[C@@H]1CCN(c2ncc(-c3ccc(-c4c[nH]nc4F)cc3O)nn2)C1` [Cpd 379, 2-{3-[(3R)-3-(tert-butylamino)pyrrolidin-1-yl]-1,2,4-triazin-6-yl}-5-(3-fluoro-1H-pyrazol-4-yl)phenol] was ≤ 100 nM. As for `CN(c1ncc(-c2ccc(-c3ccc4c(cnn4C)n3)cc2O)nn1)C1CC(C)(C)NC(C)(C)C1` [Cpd 198, 5-(1-methyl-1H-pyrazolo[4,3-b]pyridin-5-yl)-2-{3-[methyl(2,2,6,6-tetramethylpiperidin-4-yl)amino]-1,2,4-triazin-6-yl}phenol], the IC50 was ≤ 100 nM. Consider `Oc1cc(-c2cn[nH]c2)ccc1-c1cnc(N2CCC(NC3CCC(F)C3)C2)nn1` (stereo not shown) [Cpd 420, 2-(3-{3-[(3-fluorocyclopentyl)amino]pyrrolidin-1-yl}-1,2,4-triazin-6-yl)-5-(1H-pyrazol-4-yl)phenol], for which the IC50 was ≤ 100 nM. The value for `Oc1cc(-c2cn[nH]c2)ccc1-c1cnc(N2CCC(CNC3CCOC3)C2)nn1` (stereo not shown) [Cpd 395, 2-[3-(3-{[(oxolan-3-yl)amino]methyl}pyrrolidin-1-yl)-1,2,4-triazin-6-yl]-5-(1H-pyrazol-4-yl)phenol] was ≤ 100 nM; that for `COc1cc(-c2ccc(-c3cnc(N(C)C4CC(C)(C)NC(C)(C)C4)nn3)c(O)c2)ncn1` [Cpd 2, 5-(6-methoxypyrimidin-4-yl)-2-{3-[methyl(2,2,6,6-tetramethylpiperidin-4-yl)amino]-1,2,4-triazin-6-yl}phenol] was ≤ 100 nM. The value for `[2H]C([2H])([2H])n1cc(-c2ccc(-c3cnc(N[C@H]4CC(C)(C)NC(C)(C)[C@H]4F)nn3)c(O)c2)cn1` [Cpd 377, 2-(3-{[(3S,4S)-3-fluoro-2,2,6,6-tetramethylpiperidin-4-yl]amino}-1,2,4-triazin-6-yl)-5-[1-(^2H3)methyl-1H-pyrazol-4-yl]phenol] was ≤ 100 nM. The value for `CN(c1ncc(-c2ccc(-c3ccn4nncc4c3)cc2O)nn1)C1CC(C)(C)NC(C)(C)C1` [Cpd 152, 2-{3-[methyl(2,2,6,6-tetramethylpiperidin-4-yl)amino]-1,2,4-triazin-6-yl}-5-([1,2,3]triazolo[1,5-a]pyridin-5-yl)phenol] was ≤ 100 nM; that for `CN(C)CC1CCN(c2ncc(-c3ccc(-c4cn[nH]c4)cc3O)nn2)C1` (stereo not shown) [Cpd 410, 2-(3-{3-[(dimethylamino)methyl]pyrrolidin-1-yl}-1,2,4-triazin-6-yl)-5-(1H-pyrazol-4-yl)phenol] was ≤ 100 nM.

Compound `CN1CCC(Nc2ncc(-c3ccc(-c4cn[nH]c4)cc3O)nn2)CC1` [Cpd 52, 2-{3-[(1-methylpiperidin-4-yl)amino]-1,2,4-triazin-6-yl}-5-(1H-pyrazol-4-yl)phenol] displayed an IC50 of 100 to 500 nM. The value for `CC(C)NC1CCN(c2ncc(-c3ccc(-c4nnn(C)n4)cc3O)nn2)C1` (stereo not shown) [Cpd 259, 5-(2-methyl-2H-tetrazol-5-yl)-2-(3-{3-[(propan-2-yl)amino]pyrrolidin-1-yl}-1,2,4-triazin-6-yl)phenol] was 100 to 500 nM; that for `CN1CCC2(CCN(c3ncc(-c4ccc(-c5cn[nH]c5)cc4O)nn3)CC2)C1` [Cpd 183] was 100 to 500 nM. The same measure for `CC1(C)C[C@H](Nc2ncc(-c3ccc(-c4c[nH]nn4)cc3O)nn2)[C@H](F)C(C)(C)N1` [Cpd 247, 2-(3-{[(3S,4S)-3-fluoro-2,2,6,6-tetramethylpiperidin-4-yl]amino}-1,2,4-triazin-6-yl)-5-(1H-1,2,3-triazol-4-yl)phenol]: ≤ 100 nM; for `CN(c1ncc(-c2ccc(-c3ccc(=O)[nH]c3)cc2O)nn1)C1CC(C)(C)NC(C)(C)C1` [Cpd 104, 5-(3-hydroxy-4-{3-[methyl(2,2,6,6-tetramethylpiperidin-4-yl)amino]-1,2,4-triazin-6-yl}phenyl)pyridin-2(1H)-one]: ≤ 100 nM. In the case of `CN(c1ncc(-c2ccc(-c3ccc4[nH]cnc4c3)cc2O)nn1)C1CC(C)(C)NC(C)(C)C1` [Cpd 131, 5-(1H-benzimidazol-5-yl)-2-{3-[methyl(2,2,6,6-tetramethylpiperidin-4-yl)amino]-1,2,4-triazin-6-yl}phenol], the IC50 is ≤ 100 nM. The same measure for `CN(c1ncc(-c2ccc(-c3cc4cn[nH]c4cn3)cc2O)nn1)C1CC(C)(C)NC(C)(C)C1` [Cpd 184, 2-{3-[methyl(2,2,6,6-tetramethylpiperidin-4-yl)amino]-1,2,4-triazin-6-yl}-5-(1H-pyrazolo[3,4-c]pyridin-5-yl)phenol]: ≤ 100 nM; for `CN1CCC2(CC1)CN(c1ncc(-c3ccc(-c4cnc5c(cnn5C)c4)cc3O)nn1)C2` [Cpd 224, 2-[3-(7-methyl-2,7-diazaspiro[3.5]nonan-2-yl)-1,2,4-triazin-6-yl]-5-(1-methyl-1H-pyrazolo[3,4-b]pyridin-5-yl)phenol]: 1000 to 3000 nM; for `CNCC1CCN(c2ncc(-c3ccc(-c4cn[nH]c4)cc3O)nn2)C1` (stereo not shown) [Cpd 413, 2-(3-{3-[(methylamino)methyl]pyrrolidin-1-yl}-1,2,4-triazin-6-yl)-5-(1H-pyrazol-4-yl)phenol]: ≤ 100 nM. The same measure for `CNC1CCN(c2ncc(-c3ccc(-c4cnn(C)c4)cc3O)nn2)C1` (stereo not drawn) [Cpd 205, 2-{3-[3-(methylamino)pyrrolidin-l-yl]-1,2,4-triazin-6-yl}-5-(1-methyl-1H-pyrazol-4-yl)phenol]: ≤ 100 nM; for `CN(c1ncc(-c2ccc(-c3n[nH]cc3F)cc2O)nn1)C1CC(C)(C)NC(C)(C)C1` [Cpd 156, 5-(4-fluoro-1H-pyrazol-3-yl)-2-{3-[methyl(2,2,6,6-tetramethylpiperidin-4-yl)amino]-1,2,4-triazin-6-yl}phenol]: ≤ 100 nM.

For the compound `Cc1cc(-c2ccc(-c3cnc(N(C)C4CC(C)(C)NC(C)(C)C4)nn3)c(O)c2)cnn1` [Cpd 61, 5-(6-methylpyridazin-4-yl)-2-{3-[methyl(2,2,6,6-tetramethylpiperidin-4-yl)amino]-1,2,4-triazin-6-yl}phenol], the IC50 was ≤ 100 nM.

Take `CC1(C)CC(Nc2ncc(-c3ccc(-n4cc(F)cn4)cc3O)nn2)CC(C)(C)N1` [Cpd 276, 5-(4-fluoro-1H-pyrazol-1-yl)-2-{3-[(2,2,6,6-tetramethylpiperidin-4-yl)amino]-1,2,4-triazin-6-yl}phenol]: the 50% inhibitory concentration (IC50) was ≤ 100 nM. The same measure for `Oc1cc(-c2cn[nH]c2)ccc1-c1cnc(N2CCC(NC3CCC(F)(F)C3)C2)nn1` (stereo not shown) [Cpd 409, 2-(3-{3-[(3,3-difluorocyclopentyl)amino]pyrrolidin-1-yl}-1,2,4-triazin-6-yl)-5-(1H-pyrazol-4-yl)phenol]: ≤ 100 nM; for `Cn1ncc2cc(-c3ccc(-c4cnc(N5CCC(NC(C)(C)C)C5)nn4)c(O)c3)cnc21` (stereo not shown) [Cpd 221, 2-{3-[3-(tert-butylamino)pyrrolidin-1-yl]-1,2,4-triazin-6-yl}-5-(1-methyl-1H-pyrazolo[3,4-b]pyridin-5-yl)phenol]: > 500 nM; for `CN(c1ncc(-c2ccc(-c3cc(C#N)c4nccn4n3)cc2O)nn1)C1CC(C)(C)NC(C)(C)C1` [Cpd 344, 6-(3-hydroxy-4-{3-[methyl(2,2,6,6-tetramethylpiperidin-4-yl)amino]-1,2,4-triazin-6-yl}phenyl)imidazo[1,2-b]pyridazine-8-carbonitrile]: ≤ 100 nM. The same measure for `CN(c1ncc(-c2ccc(-c3ccnn3C)cc2O)nn1)C1CC(C)(C)NC(C)(C)C1` [Cpd 124, 5-(1-methyl-1H-pyrazol-5-yl)-2-{3-[methyl(2,2,6,6-tetramethylpiperidin-4-yl)amino]-1,2,4-triazin-6-yl}phenol]: 100 to 500 nM; for `Oc1cc(-c2cn[nH]c2)ccc1-c1cnc(N2C[C@@H]3CCCN[C@@H]3C2)nn1` [Cpd 306, 2-{3-[(4aS,7aS)-octahydro-6H-pyrrolo[3,4-b]pyridin-6-yl]-1,2,4-triazin-6-yl}-5-(1H-pyrazol-4-yl)phenol]: 100 to 500 nM.

Turning to `Oc1cc(-c2cn[nH]c2)ccc1-c1cnc(N2CCC(CNC3CC3)C2)nn1` (stereo not shown) [Cpd 392, 2-(3-{3-[(cyclopropylamino)methyl]pyrrolidin-1-yl}-1,2,4-triazin-6-yl)-5-(1H-pyrazol-4-yl)phenol], the IC50 was ≤ 100 nM. The same measure for `Oc1cc(-c2cn[nH]c2)ccc1-c1cnc(N2CCC3(CCCNC3)C2)nn1` (stereo not shown) [Cpd 369, 2-[3-(2,7-diazaspiro[4.5]decan-2-yl)-1,2,4-triazin-6-yl]-5-(1H-pyrazol-4-yl)phenol]: ≤ 100 nM. The same measure for `Cc1n[nH]cc1-c1ccc(-c2cnc(N3CCC(NC(C)(C)C)C3)nn2)c(O)c1` (stereo not shown) [Cpd 375, 2-{3-[3-(tert-butylamino)pyrrolidin-1-yl]-1,2,4-triazin-6-yl}-5-(3-methyl-1H-pyrazol-4-yl)phenol]: ≤ 100 nM.
